# Marks after values point to notes of the source that are not given here.
# Assays:
# [1] = test system: overweight to obese males; test: 21-day oral DEA study: fasting plasma glucose and OGTT glucose; assay type: in vivo, human; conditions: for AUC Glucose: 180-minute OGTT, in mg·min/dL (unit assumed); for AUC Glucose / Fasting plasma glucose / Glucose 180 min: D21 post-treatment, 21 daily oral doses of 1 mg/kg, mean; for Glucose 180 min: OGTT
# Source text: (§1) Seventeen subjects were recruited by sampling a large population at risk for T2D (according to convenience sample; a statistical method of drawing representative data) to measure the changes in glucose, lipid and insulin measurements after an OGTT after the subjects had been treated for 21 days.
# (§2) The subjects were overweight to obese males with body mass indices (BMIs) ranging from 27.2 to 43.6 kg/m^2, glycated hemoglobin A1c (HbA1c) of 5.0-6.2% and insulin levels of 8.8-52 μU/mL. The study was conducted by Clinical Trials of Texas, Inc. in San Antonio, TX. The cohort represented a population at risk for the development of T2D. The study was restricted to male participants to control for the variability of insulin sensitivity associated with the menstrual cycle. The subjects received 21 daily oral doses (“q1d”) of 1 mg/kg DEA. An OGTT, in which 75 grams of glucose in a total volume of 300 mL was administered orally to subjects, was performed on Day 0 and again on Day 21 and glucose measurements performed at −30, −5 and 0 min, insulin measurements at −30 and 0 min, and both glucose measurements and insulin measurements at 30, 60, 90, 120 and 180 minutes, where “0 min” is the time at which the glucose solution was administered. The 180-minute time point was selected to gain an early insight into the possible signal of drug action. Blood lipid levels (triglycerides, cholesterol, HDL, non-cholesterol HDL and LDL) were measured before the onset of treatment on Day 0 and again on Day 21. The error of the assays was <5% [36].
# (§3) The results of the various marker measurements at Day 0 and Day 21 were compared using both the paired Students T-test and the Wilcoxon signed rank test. The results of both calculations are provided; the p-value from the paired Student T-test first, followed by the p-value from the Wilcoxon signed rank test. Generalized Estimating Equations and bootstrapping were used to verify the results generated with other methods. Fasting glucose was calculated as the average of the −30, −5, and 0-minute measurements and fasting insulin was calculated as the average of the −30- and 0-minute measurements. Spearman's correlation coefficient was calculated for the relationship between A1c and pre-treatment fasting plasma glucose versus post-treatment fasting plasma glucose. Area under the curve (AUC) was calculated over the 180-minute time span of the OGTT. All analyses were performed using the open language engine R 3.4.4. Statistical significance was at the α=0.05 level.
# For measuring the effect of DEA on blood glucose, an assessment of fasting plasma glucose levels was relied upon, which is a measure that is commonly used as an indication that a subject may be diabetic. A level under 100 mg/dL is considered clinically normal while the range between 100 and 125 mg/dL is indicative of prediabetes. At the threshold of 100 mg/dL the human body begins to have a compromised insulin response to glucose shock. The OGTT was used, in which a standard dose of glucose was ingested by mouth, and blood samples were taken at specified time points after ingestion. Plasma blood glucose measurements were then obtained as a means of understanding the pharmacodynamic effects of DEA.
# [2] = test system: overweight to obese males; test: 21-day oral DEA study: blood lipid levels and lipid ratios; assay type: in vivo, human; conditions: for LDL/triglycerides / LDL/HDL / Triglycerides/HDL / Non-cholesterol HDL/HDL / Cholesterol, total/HDL / HDL cholesterol / LDL cholesterol / Non-cholesterol HDL / Triglycerides / Cholesterol, total: D21 post-treatment, 21 daily oral doses of 1 mg/kg, mean; for decrease of LDL/HDL: p=0.02; for Cholesterol/HDL, decrease / LDL/HDL, decrease: significant effect
# Source text: as §1, §2, §3
smiles,measurement,setting,value
"CCOC(=O)CCCCCCCC(=O)OCC [DEA, diethyl azelate]",average decrease of fasting glucose,"[1]; 8 subjects with a fasting glucose≥100 mg/dL, Day 21 vs Day 0, p=0.033, p=0.06",6.06 mg/dL
same,AUC Glucose,"[1]; All (n = 17), D0 25826",25356
same,AUC Glucose,"[1]; FPG <100 mg/dL (n = 8), D0 23530",24475
same,AUC Glucose,"[1]; FPG >100 mg/dL (n = 9), D0 27867",26138
same,AUC Glucose,"[1]; High A1c (n = 9), D0 27313",25889
same,AUC Glucose,"[1]; Low A1c (n = 8), D0 24153",24756
same,Fasting plasma glucose,"[1]; All (n = 17), D0 101.662",99.732 mg/dL
same,Fasting plasma glucose,"[1]; FPG <100 mg/dL (n = 8), D0 92.769",97.25 mg/dL
same,Fasting plasma glucose,"[1]; FPG >100 mg/dL (n = 9), D0 109.567, P < 0.01",101.939** mg/dL
same,Fasting plasma glucose,"[1]; High A1c (n = 9), D0 105.156",100.261 mg/dL
same,Fasting plasma glucose,"[1]; Low A1c (n = 8), D0 97.731",99.138 mg/dL
same,Glucose 180 min,"[1]; All (n = 17), D0 100.315",91.579 mg/dL
same,Glucose 180 min,"[1]; FPG <100 mg/dL (n = 8), D0 89.919",86.494 mg/dL
same,Glucose 180 min,"[1]; FPG >100 mg/dL (n = 9), D0 109.556",96.1 mg/dL
same,Glucose 180 min,"[1]; High A1c (n = 9), D0 108.978",95.128 mg/dL
same,Glucose 180 min,"[1]; Low A1c (n = 8), D0 90.569",87.588 mg/dL
same,increase of post-treatment fasting glucose,"[1]; entire cohort of 17 subjects, Day 21 vs Day 0, insignificant (p=0.962; p=0.96)",0.11 mg/dL
same,average decrease of glucose at 180 minutes,"[1]; entire cohort, not significant (p=0.136; 0.057)",9.14%
same,decrease in 180 min plasma glucose after treatment,"[1]; remaining 16 subjects (subject #1 excluded), p=0.002, 0.003",13.5%
same,increase of glucose at 180 minutes,[1]; single outlier (subject #1),58.6%
same,fasting glucose level post-treatment,"[1]; subject #1 (A1c 6.2%), decreased from 123.8",116.3 mg/dL
same,180 min glucose level post-treatment,"[1]; subject #1 (A1c 6.2%), decreased from 200.0",184.5 mg/dL
same,180 min glucose level post-treatment,"[1]; subject #2 (A1c 6.1%), from 88.3",69 mg/dL
same,180 min glucose level post-treatment,"[1]; subject #3 (A1c 6.0%), from 146",119 mg/dL
same,average decrease of fasting glucose,"[1]; subjects with HbA1c≥5.6%, Day 21 vs Day 0, p=0.128, p=0.22",4.25 mg/dL
same,median decrease of glucose levels at 180 minutes,"[1]; subset of 12 subjects, Day 21",25.3%
same,average decrease of glucose levels at 180 minutes,"[1]; subset of 12 subjects, Day 21, p<0.001",21.7%
same,"HDL, increase","[2]; 21-day study, group not stated",8.7% increase
same,LDL/triglycerides,"[2]; All (n = 17), D0 0.998",0.893
same,LDL/HDL,"[2]; All (n = 17), D0 3.442, P < 0.05",3.201*
same,Triglycerides/HDL,"[2]; All (n = 17), D0 3.761",3.907
same,Non-cholesterol HDL/HDL,"[2]; All (n = 17), D0 3.799, P < 0.05",3.549*
same,"Cholesterol, total/HDL","[2]; All (n = 17), D0 4.806, P < 0.05",4.553*
same,HDL cholesterol,"[2]; All (n = 17), D0 32.765",34.412 mg/dL
same,LDL cholesterol,"[2]; All (n = 17), D0 93.765",89.765 mg/dL
same,Non-cholesterol HDL,"[2]; All (n = 17), D0 117.412",114.471 mg/dL
same,Triglycerides,"[2]; All (n = 17), D0 118.588",124 mg/dL
same,"Cholesterol, total","[2]; All (n = 17), D0 150.118",148.882 mg/dL
same,LDL/triglycerides,"[2]; FPG <100 mg/dL (n = 8), D0 0.861",0.887
same,LDL/HDL,"[2]; FPG <100 mg/dL (n = 8), D0 3.082",2.892
same,Non-cholesterol HDL/HDL,"[2]; FPG <100 mg/dL (n = 8), D0 3.309",3.098
same,Triglycerides/HDL,"[2]; FPG <100 mg/dL (n = 8), D0 3.693",3.521
same,"Cholesterol, total/HDL","[2]; FPG <100 mg/dL (n = 8), D0 4.311",4.089
same,HDL cholesterol,"[2]; FPG <100 mg/dL (n = 8), D0 31.25",31.5 mg/dL
same,LDL cholesterol,"[2]; FPG <100 mg/dL (n = 8), D0 101",90.75 mg/dL
same,Non-cholesterol HDL,"[2]; FPG <100 mg/dL (n = 8), D0 111.778",114.333 mg/dL
same,Triglycerides,"[2]; FPG <100 mg/dL (n = 8), D0 122.889",127.667 mg/dL
same,"Cholesterol, total","[2]; FPG <100 mg/dL (n = 8), D0 154.875",146.125 mg/dL
same,LDL/triglycerides,"[2]; FPG >100 mg/dL (n = 9), D0 1.152",0.9
same,Triglycerides/HDL,"[2]; FPG >100 mg/dL (n = 9), D0 3.837",4.342
same,LDL/HDL,"[2]; FPG >100 mg/dL (n = 9), D0 3.847",3.549
same,Non-cholesterol HDL/HDL,"[2]; FPG >100 mg/dL (n = 9), D0 4.349",4.057
same,"Cholesterol, total/HDL","[2]; FPG >100 mg/dL (n = 9), D0 5.362",5.075
same,HDL cholesterol,"[2]; FPG >100 mg/dL (n = 9), D0 34.111",37 mg/dL
same,LDL cholesterol,"[2]; FPG >100 mg/dL (n = 9), D0 105",103.444 mg/dL
same,Triglycerides,"[2]; FPG >100 mg/dL (n = 9), D0 113.75",119.875 mg/dL
same,Non-cholesterol HDL,"[2]; FPG >100 mg/dL (n = 9), D0 123.75",114.625 mg/dL
same,"Cholesterol, total","[2]; FPG >100 mg/dL (n = 9), D0 145.889",151.333 mg/dL
same,LDL/triglycerides,"[2]; High A1c (n = 9), D0 0.954",0.972
same,LDL/HDL,"[2]; High A1c (n = 9), D0 3.173, P < 0.01",2.862**
same,Non-cholesterol HDL/HDL,"[2]; High A1c (n = 9), D0 3.446",3.108
same,Triglycerides/HDL,"[2]; High A1c (n = 9), D0 3.481",3.096
same,"Cholesterol, total/HDL","[2]; High A1c (n = 9), D0 4.456, P < 0.05",4.1*
same,HDL cholesterol,"[2]; High A1c (n = 9), D0 37.889",41.222 mg/dL
same,LDL cholesterol,"[2]; High A1c (n = 9), D0 105",103.444 mg/dL
same,Triglycerides,"[2]; High A1c (n = 9), D0 129",125.222 mg/dL
same,Non-cholesterol HDL,"[2]; High A1c (n = 9), D0 130.667",128.444 mg/dL
same,"Cholesterol, total","[2]; High A1c (n = 9), D0 168.444",169.667 mg/dL
same,LDL/triglycerides,"[2]; Low A1c (n = 8), D0 1.048",0.804
same,LDL/HDL,"[2]; Low A1c (n = 8), D0 3.744",3.582
same,Triglycerides/HDL,"[2]; Low A1c (n = 8), D0 4.076",4.82
same,Non-cholesterol HDL/HDL,"[2]; Low A1c (n = 8), D0 4.196",4.046
same,"Cholesterol, total/HDL","[2]; Low A1c (n = 8), D0 5.2",5.062
same,HDL cholesterol,"[2]; Low A1c (n = 8), D0 27",26.75 mg/dL
same,LDL cholesterol,"[2]; Low A1c (n = 8), D0 81.125",74.375 mg/dL
same,Non-cholesterol HDL,"[2]; Low A1c (n = 8), D0 102.5",98.75 mg/dL
same,Triglycerides,"[2]; Low A1c (n = 8), D0 106.875",122.625 mg/dL
same,"Cholesterol, total","[2]; Low A1c (n = 8), D0 129.5",125.5 mg/dL
same,"LDL, decrease",[2]; all,4.3%
same,decrease of LDL/HDL,"[2]; all 17 subjects, p=0.011",6.46%
same,HDL and non-cholesterol HDL,[2]; all subjects,non-significantly affected by the treatment
same,"Cholesterol/HDL, decrease",[2]; all,5.4%
same,"LDL/HDL, decrease",[2]; all,6.5%
same,"effect on total cholesterol, LDL, HDL, non-cholesterol HDL, and triglycerides considered singly",[2]; entire cohort,did not exert statistically significant effects on any endpoint considered singly
same,decrease of the ratio of total cholesterol/HDL,"[2]; entire cohort, p=0.025, p=0.041",5.36%
same,decrease of non-cholesterol HDL/HDL ratio,"[2]; entire cohort, p=0.025, p=0.057",6.6%
same,"LDL, decrease",[2]; high A1c,2%
same,decrease of median total cholesterol,[2]; high A1c group,1 mg/dL
same,decrease of the ratio of triglycerides/HDL,[2]; high A1c group,11%
same,ratio of triglycerides/HDL post-treatment,"[2]; high A1c group, from 3.4",3.0
same,LDL trend,"[2]; high A1c group, less so in the low A1c group, normal <100 mg/dL",decreasing trend toward normal values
same,decrease of the ratio of total cholesterol/HDL,"[2]; high A1c group, p=0.017, p=0.068",7.99%
same,decrease of non-cholesterol HDL/HDL ratio,"[2]; high A1c group, p=0.025, p=0.074",9.8%
same,decrease of LDL/HDL,"[2]; high A1c subjects, 21-day study (3 weeks), p=0.008",9.8%
same,"Cholesterol/HDL, decrease",[2]; high A1c,8%
same,"LDL/HDL, decrease",[2]; high A1c,9.8%
same,elevated triglycerides post-treatment,[2]; including two high A1c subjects with abnormal triglycerides >150 before treatment,decreased post-treatment to normal levels in 8 subjects
same,increase of the ratio of triglycerides/HDL,[2]; low A1c,15%
same,increase of median total cholesterol,[2]; low A1c group,9 mg/dL
same,ratio of triglycerides/HDL post-treatment,"[2]; low A1c, from 3.9",4.6
same,abnormal total cholesterol (>200 mg/dL) post-treatment,[2]; two subjects in the high A1c group,decreased or returned to normal levels
